How the values were obtained:
male ddy strain mice = test: Test for acute toxicity (minimum lethal dose, oral); assay type: in vivo; conditions: mortality observed seven days after administration
Method: Groups of 3 male ddy strain mice weighing 20±1 g were used. The test compounds were orally administered. Seven days after administration, the mortality was observed and the minimum lethal dose (MLD) was determined.

serum cholesterol level = test: Inhibition effect on serum cholesterol level in hamster with dietary hyperlipemia; assay type: in vivo; conditions: Golden hamster, 2% cholesterol feed for 3 days; 30 mg/kg orally once a day
Method: Inhibition effect on serum cholesterol level in hamster with dietary hyperlipemia
Golden hamster (SLC, male, age of 6 weeks) was made free access to feed containing 2% cholesterol for 3 days. Each test compound was suspended in olive oil and orally administered once a day in a dose of 30 mg/kg during the feeding. (A: Test Group administered with the test compound, B: Control Group administered with olive oil only). In Group C, feed free from cholesterol was fed for 3 days. On the fourth day, blood sample was collected from the descending aorta under pentobarbital anesthesia and cholesterol level in serum was determined. The total cholesterol level in serum of each group was determined and the inhibition rate for the test compound was calculated according to the following equation. [formula]

[1] = test system: acyl coenzyme A: cholesterol acyltransferase (ACAT); test: Test for ACAT inhibitory activity (microsome fraction prepared from rabbit liver); assay type: biochemical; conditions: 10^-6 M, 37° C., 10 minutes
Method: Test for ACAT inhibitory activity The test for ACAT inhibitory activity was performed by a modified method of the method of Brecher et al. Biochim. Biophys. […] The radioactivity of the cholesterol ester spot was determined by a liquid scintillation counter. The radio-activity for each test compound was calculated by the difference between the radioactivity with the microsome fraction and the radioactivity without the microsome fraction. The radioactivity of control was determined in a similar manner without any test compound.

| SMILES | Acute Toxicity (MLD), minimum lethal dose (male ddy strain mice) [mg/kg] | Inhibition Rate (%) of total cholesterol level in serum (serum cholesterol level) [%] | Inhibiting rate(%) of ACAT [1] [%] |
| --- | --- | --- | --- |
| Cc1ccc2c(c1)C(C(=O)Nc1c(C(C)C)cccc1C(C)C)c1ccccc1CO2 (stereo not drawn) [Compound 4, 6,11-Dihydro-N-(2,6-diisopropylphenyl)-2-methyldibenz[b,e]-oxepin-11-carboxamide] | > 300 | 70 | 98 |
| CC(C)c1cccc(C(C)C)c1NC(=O)C1c2ccccc2CSc2ccc(Br)cc21 (stereo not drawn) [Compound 32, 2-Bromo-6,11-dihydro-N-(2,6-diisopropylphenyl)dibenzo[b,e]-thiepin-11-carboxamide] | > 300 | 67 | 88 |

From patent US5340807A, “Tricyclic compounds and intermediates thereof” (priority 1991, dated 1994)
